# In patent publication US8758816B2, “Compositions comprising azelastine and methods of use thereof” (priority 2004, dated 2014):
# Tested on: patients with seasonal allergic rhinitis (SAR)
# Assay: MP 428 two-week randomized double-blind study: Total Nasal Symptom Score (TNSS), change from baseline
# Assay type: in vivo, human
# Design: key to Change from Baseline in AM TNSS, Mean / Change from Baseline in AM TNSS, LS Mean / Change from Baseline in AM TNSS, Median: TNSS sum of 4 symptoms each 0-3 (0=none, 3=severe); change from baseline
# Settings: for AUC of Change from Baseline in TNSS (AM and PM Combined), Mean / AUC of Change from Baseline in TNSS (AM and PM Combined), Median / AUC of Change from Baseline in TNSS (AM and PM Combined), LS Mean: Day 1 to Day 14; for AUC of Change from Baseline in TNSS (AM and PM Combined), LS Mean: ANCOVA
# Description: A two-week, randomized, double-blind study, which evaluated the effects of the co-administration of ASTELIN® (azelastine hydrochloride (HCl)) and FLONASE® (fluticasone propionate) compared to either product alone in patients with seasonal allergic rhinitis (SAR) was conducted during the 2006 Texas mountain cedar season. After a 5-day placebo lead-in period, 151 patients with moderate-to-severe allergic rhinitis symptoms were randomized to either: (1) (49 total patients) ASTELIN® (azelastine hydrochloride (HCl)) plus placebo saline nasal spray 2 sprays per nostril, 15 minutes apart, twice daily (AM & PM); (2) (50 total patients) FLONASE® (fluticasone propionate) plus placebo saline nasal spray, 2 sprays per nostril, 15 minutes apart, once daily (AM) and two sessions of placebo saline nasal spray, 2 sprays per nostril, 15 minutes apart (PM); or (3) (52 total patients) the co-administration of ASTELIN® (azelastine hydrochloride (HCl)) 2 sprays per nostril plus FLONASE® (fluticasone propionate) 2 sprays per nostril (AM), 15 minutes apart, and ASTELIN® (azelastine hydrochloride (HCl)) 2 sprays per nostril plus placebo saline nasal spray, 15 minutes apart, (PM) for a 2-week double-blind treatment period.
# The primary efficacy variable was the change from baseline in the Total Nasal Symptom Score (TNSS), which comprised sneezing, itchy nose, runny nose, and nasal congestion (individual symptoms scores were assigned a value between 0 and 3, where 0=no symptoms and 3=severe symptoms). This study was not statistically designed to assess the differences between ASTELIN® and FLONASE®.
# [1] = Day 12, Per-Protocol Population
# [2] = Day 13, Intent-to-Treat Population
# [3] = Day 13, Per-Protocol Population
# [4] = Day 14, Intent-to-Treat Population
# [5] = Day 14, Per-Protocol Population
# [6] = Overall (Day 2 to Day 14), Intent-to-Treat Population
# [7] = Overall (Day 2 to Day 14), Per-Protocol Population
smiles,measurement,setting,value
"CCC(=O)O[C@]1(C(=O)SCF)[C@H](C)C[C@H]2[C@@H]3C[C@H](F)C4=CC(=O)C=C[C@]4(C)[C@@]3(F)[C@@H](O)C[C@@]21C [Fluticasone, fluticasone propionate]","Percent Change from Baseline in PM TNSS, Median","Day 12, Intent-to-Treat Population",−31.82%
same,"Change from Baseline in AM and PM Combined TNSS, LS Mean","Day 12, Intent-to-Treat Population, ANCOVA model",−6.12
same,"Change from Baseline in AM and PM Combined TNSS, LS Mean",[1],−6.16
same,"Change from Baseline in AM and PM Combined TNSS, Mean",[1],−6.20
same,"Change from Baseline in AM and PM Combined TNSS, Median",[1],−5.17
same,"Percent Change from Baseline in AM and PM Combined TNSS, LS Mean",[1],−31.45%
same,"Percent Change from Baseline in AM and PM Combined TNSS, Mean",[1],−31.50%
same,"Percent Change from Baseline in AM and PM Combined TNSS, Median",[1],−27.78%
same,"Change from Baseline in AM TNSS, LS Mean",[2],−3.38
same,"Change from Baseline in AM TNSS, Mean",[2],−3.32
same,"Change from Baseline in AM TNSS, Median",[2],−3.00
same,"Change from Baseline in AM and PM Combined TNSS, Mean",[2],−6.83
same,"Change from Baseline in AM and PM Combined TNSS, Median",[2],−6.20
same,"Change from Baseline in PM TNSS, LS Mean",[2],−3.57
same,"Change from Baseline in PM TNSS, Mean",[2],−3.51
same,"Change from Baseline in PM TNSS, Median",[2],−3.00
same,"Percent Change from Baseline in AM TNSS, LS Mean",[2],−34.62%
same,"Percent Change from Baseline in AM TNSS, Mean",[2],−34.03%
same,"Percent Change from Baseline in AM TNSS, Median",[2],−28.36%
same,"Percent Change from Baseline in AM and PM Combined TNSS, LS Mean",[2],−35.63%
same,"Percent Change from Baseline in AM and PM Combined TNSS, Mean",[2],−34.97%
same,"Percent Change from Baseline in AM and PM Combined TNSS, Median",[2],−30.43%
same,"Percent Change from Baseline in PM TNSS, LS Mean",[2],−36.56%
same,"Percent Change from Baseline in PM TNSS, Mean",[2],−35.75%
same,"Percent Change from Baseline in PM TNSS, Median",[2],−33.33%
same,"Change from Baseline in AM and PM Combined TNSS, LS Mean","Day 13, Intent-to-Treat Population, ANCOVA model",−6.95
same,"Change from Baseline in AM and PM Combined TNSS, LS Mean",[3],−7.03
same,"Change from Baseline in AM and PM Combined TNSS, Mean",[3],−7.01
same,"Change from Baseline in AM and PM Combined TNSS, Median",[3],−6.50
same,"Percent Change from Baseline in AM and PM Combined TNSS, LS Mean",[3],−35.99%
same,"Percent Change from Baseline in AM and PM Combined TNSS, Mean",[3],−35.73%
same,"Percent Change from Baseline in AM and PM Combined TNSS, Median",[3],−30.43%
same,"Change from Baseline in AM TNSS, LS Mean",[4],−3.33
same,"Change from Baseline in AM TNSS, Mean",[4],−3.28
same,"Change from Baseline in AM TNSS, Median",[4],−3.00
same,"Change from Baseline in AM and PM Combined TNSS, Mean",[4],−6.91
same,"Change from Baseline in AM and PM Combined TNSS, Median",[4],−5.85
same,"Change from Baseline in PM TNSS, LS Mean",[4],−3.70
same,"Change from Baseline in PM TNSS, Mean",[4],−3.63
same,"Change from Baseline in PM TNSS, Median",[4],−3.00
same,"Percent Change from Baseline in AM TNSS, LS Mean",[4],−33.54%
same,"Percent Change from Baseline in AM TNSS, Mean",[4],−33.12%
same,"Percent Change from Baseline in AM TNSS, Median",[4],−31.03%
same,"Percent Change from Baseline in AM and PM Combined TNSS, LS Mean",[4],−35.62%
same,"Percent Change from Baseline in AM and PM Combined TNSS, Mean",[4],−35.00%
same,"Percent Change from Baseline in AM and PM Combined TNSS, Median",[4],−28.71%
same,"Percent Change from Baseline in PM TNSS, LS Mean",[4],−37.70%
same,"Percent Change from Baseline in PM TNSS, Mean",[4],−36.79%
same,"Percent Change from Baseline in PM TNSS, Median",[4],−33.33%
same,"Change from Baseline in AM and PM Combined TNSS, LS Mean","Day 14, Intent-to-Treat Population, ANCOVA model",−7.02
same,"Change from Baseline in AM and PM Combined TNSS, LS Mean",[5],−7.15
same,"Change from Baseline in AM and PM Combined TNSS, Mean",[5],−7.14
same,"Change from Baseline in AM and PM Combined TNSS, Median",[5],−6.00
same,"Percent Change from Baseline in AM and PM Combined TNSS, LS Mean",[5],−36.26%
same,"Percent Change from Baseline in AM and PM Combined TNSS, Mean",[5],−36.03%
same,"Percent Change from Baseline in AM and PM Combined TNSS, Median",[5],−34.31%
same,"AUC of Change from Baseline in TNSS (AM and PM Combined), Mean",Intent-to-Treat Population,−64.53
same,"AUC of Change from Baseline in TNSS (AM and PM Combined), Median",Intent-to-Treat Population,−51.13
same,"AUC of Change from Baseline in TNSS (AM and PM Combined), LS Mean",Intent-to-Treat Population,−65.00
same,"Change from Baseline in AM TNSS, LS Mean",[6],−2.55
same,"Change from Baseline in AM TNSS, Mean",[6],−2.57
same,"Change from Baseline in AM TNSS, Median",[6],−2.14
same,"Change from Baseline in AM and PM Combined TNSS, Mean",[6],−5.06
same,"Change from Baseline in AM and PM Combined TNSS, Median",[6],−3.91
same,"Change from Baseline in PM TNSS, LS Mean",[6],−2.71
same,"Change from Baseline in PM TNSS, Mean",[6],−2.43
same,"Change from Baseline in PM TNSS, Median",[6],−1.86
same,"Percent Change from Baseline in AM TNSS, LS Mean",[6],−26.39%
same,"Percent Change from Baseline in AM TNSS, Mean",[6],−26.49%
same,"Percent Change from Baseline in AM TNSS, Median",[6],−23.89%
same,"Percent Change from Baseline in AM and PM Combined TNSS, LS Mean",[6],−27.13%
same,"Percent Change from Baseline in AM and PM Combined TNSS, Mean",[6],−26.12%
same,"Percent Change from Baseline in AM and PM Combined TNSS, Median",[6],−21.93%
same,"Percent Change from Baseline in PM TNSS, LS Mean",[6],−27.75%
same,"Percent Change from Baseline in PM TNSS, Mean",[6],−24.98%
same,"Percent Change from Baseline in PM TNSS, Median",[6],−20.34%
same,"Change from Baseline in AM and PM Combined TNSS, LS Mean","Overall (Day 2 to Day 14), Intent-to-Treat Population, ANCOVA model",−5.24
same,"Change from Baseline in AM and PM Combined TNSS, LS Mean",[7],−5.24
same,"Change from Baseline in AM and PM Combined TNSS, Mean",[7],−5.14
same,"Change from Baseline in AM and PM Combined TNSS, Median",[7],−3.91
same,"Percent Change from Baseline in AM and PM Combined TNSS, LS Mean",[7],−27.12%
same,"Percent Change from Baseline in AM and PM Combined TNSS, Mean",[7],−26.46%
same,"Percent Change from Baseline in AM and PM Combined TNSS, Median",[7],−21.93%
same,"AUC of Change from Baseline in TNSS (AM and PM Combined), Mean",Per-Protocol Population,−65.66
same,"AUC of Change from Baseline in TNSS (AM and PM Combined), Median",Per-Protocol Population,−51.13
same,"AUC of Change from Baseline in TNSS (AM and PM Combined), LS Mean",Per-Protocol Population,−65.38
